Patent publication US6143509A, “Prostate specific antigen peptides and uses thereof” (Abbott Laboratories, priority 1996, dated 2000)

How the values were obtained:
mAb 2C1 = assay: Competitive immunoassay: inhibition of total PSA specific mAb binding to PSA; conditions: FIG. 3A
Experimental: (§1) (A). Two-site combinations of capture antibody and Europium chelate (Eu)-labeled antibody was used to determine the inhibition of mAbs binding to PSA by the synthetic peptides derived from PSA. Briefly, free PSA (0.05 pmol/well, Wallac, O Y, Turku, Finland) in 0.100 mL of Delfia® buffer (Wallac, O Y) (i.e., a blocking buffer containing 50 mM Tris-HCl (pH 7.75), 0.9% NaCl, 0.05% Na-azide, 0.01% Tween 40, 0.05% bovine-gammaglobulin, 20 μM DTPA, 0.5% BSA, 10 μg/mL native mouse IgG, 5 μg/mL denatured mouse IgG and 20 μg/mL cherry red) was added to microtiter wells coated with the various anti-PSA antibodies being used for capture (1-2 μg/well of antibody) and incubated for 1 hour at 25° C. […] After another four washings, the amount of bound Eu-labeled antibody was determined with time-resolved fluorometry previously described (Pettersson et al., Clin. Chem. 41:1480-88 (1995) & Hemmilia et al., Anal. Biochem. 137:335-43 (1984)).
(§2) (B). […] After another four washings, 100 μl/well of p-nitrophenyl phosphate substrate (Pierce Chemical Co., Rockford, Ill.) was added and the absorbance was measured at 405 nm using an automated microtiter plate reader.

mAb H164 [1] = assay: as above; conditions: FIG. 3A
Experimental: as §1, §2

[2] = tested on: rabbit anti-ABT4 antiserum; assay: Indirect ELISA, reactivity and specificity of anti-ABT4 antiserum; assay type: binding; conditions: FIG. 6, relative affinity ABT4 >PSA >hK2a
Experimental: (§3) An indirect ELISA assay was used to determine the reactivity and specificity of anti-PSA mAbs and pAbs. For the assay, 96 well microtiter plates (Costar, Cambridge, MA) were coated with PSA (0.5 micrograms/well, Abbott Laboratories, in house product, code# 91969, purified from seminal fluid) or peptides (0.1 mg/well) in 0.1 M carbonate-bicarbonate buffer (pH 9.0) overnight at 4° C. The plates were blocked with 1% BSA in PBS buffer (0.008 M sodium phosphate, 0.002M potassium phosphate, 0.14 M sodium chloride and 0.01M potassium chloride, pH 7.4) for 1 hour, then anti-PSA mAbs or pAbs (100 microliters/well) at varying dilutions were added. […] After washing, 100 microliters/well of p-nitrophenyl phosphate substrate (Pierce, Rockford, Ill.) was added and the absorbance was measured at 405 nm using an automated microtiter plate reader (Molecular Devices Corp. Menlo Oaks, Calif.). […]
The reactivity and specificity of Anti-ABT4 antiserum were evaluated by estimating the relative binding affinities (Wang et al., […] 39:1-5 (1982)) for PSA, PSA peptide ABT4 and hK2 peptide (hK2a) as described in Example I. The indirect ELISA assay format described in Section C-I of Example I was used for these studies and the data are shown in FIG. 6. […]

[3] = tested on: known anti-PSA monoclonal antibodies; assay: Binding to known anti-PSA monoclonal antibodies (summary); conditions: summary statement
Experimental: (§4) An indirect ELISA assay was used to determine the reactivity and specificity of anti-PSA mAbs and pAbs. For the assay, 96 well microtiter plates (Costar, Cambridge, MA) were coated with PSA (0.5 micrograms/well, Abbott Laboratories, in house product, code# 91969, purified from seminal fluid) or peptides (0.1 mg/well) in 0.1 M carbonate-bicarbonate buffer (pH 9.0) overnight at 4° C. The plates were blocked with 1% BSA in PBS buffer (0.008 M sodium phosphate, 0.002M potassium phosphate, 0.14 M sodium chloride and 0.01M potassium chloride, pH 7.4) for 1 hour, then anti-PSA mAbs or pAbs (100 microliters/well) at varying dilutions were added. After incubation for 1 hour at 25° C., the wells were washed with PBS buffer containing 0.5% Tween 20, then 100 microliters/well of alkaline phosphatase-conjugated antibody (goat anti-mouse IgG or goat anti-rabbit IgG--from Pierce, Rockford, IL) at 5000 fold dilution was added and incubation continued for 1-2 hr at 25° C. After washing, 100 microliters/well of p-nitrophenyl phosphate substrate (Pierce, Rockford, Ill.) was added and the absorbance was measured at 405 nm using an automated microtiter plate reader (Molecular Devices Corp. Menlo Oaks, Calif.).
(§5) (A). Two-site combinations of capture antibody and Europium chelate (Eu)-labeled antibody was used to determine the inhibition of mAbs binding to PSA by the synthetic peptides derived from PSA. Briefly, free PSA (0.05 pmol/well, Wallac, O Y, Turku, Finland) in 0.100 mL of Delfia® buffer (Wallac, O Y) (i.e., a blocking buffer containing 50 mM Tris-HCl (pH 7.75), 0.9% NaCl, 0.05% Na-azide, 0.01% Tween 40, 0.05% bovine-gammaglobulin, 20 μM DTPA, 0.5% BSA, 10 μg/mL native mouse IgG, 5 μg/mL denatured mouse IgG and 20 μg/mL cherry red) was added to microtiter wells coated with the various anti-PSA antibodies being used for capture (1-2 μg/well of antibody) and incubated for 1 hour at 25° C. (Free or total antibodies may be used.) After washing with Delfia® wash solution, peptides (62,500-1,000,000 molar excess to PSA) in […] Delfia® buffer were added together with the Europium chelate-labeled anti-PSA antibody (0.05 pmol), and incubation was continued for 1 hour at 25°0 C. After another four washings, the amount of bound Eu-labeled antibody was determined with time-resolved fluorometry previously described (Pettersson et al., Clin. Chem. 41:1480-88 (1995) & Hemmilia et al., Anal. Biochem. 137:335-43 (1984)).
as §2

[4] = Immunization of rabbits with peptide coupled to KLH; assay type: in vivo; conditions: FIG. 5 / FIG. 6
Source text: Antiserum was elicited by immunizing rabbits with PSA peptide ABT6 coupled to the carrier protein KLH (keyhole limpet hemocyanin) at Bio-Synthesis, Inc. (Lewisville, Tex.) using standard commercially available techniques.
Anti-ABT4 antiserum was elicited by immunizing two rabbits with PSA peptide ABT4 coupled to the carrier protein KLH at Bio-Synthesis, Inc.(Lewisville,Tex.).

mAb H164 [5] = assay: Indirect ELISA, binding specificity of mAb H164; conditions: FIG. 3C
Experimental: as §4

[6] = tested on: rabbit anti-ABT6 antiserum; assay: Indirect ELISA, reactivity and specificity of anti-ABT6 antiserum; assay type: binding; conditions: FIG. 5
Experimental: as §3
The reactivity and specificity of antiserum anti-ABT6 was evaluated by estimating the relative binding affinities (Wang et al., Urology 39:1-5 (1982)) for PSA, PSA peptide ABT6 and hK2 peptide hK2b as described in Example I. The indirect ELISA format described in Section C-I of Example 1 was used for these studies and the data are shown in FIG. 5.

mAb 2E9 [7] = assay: Indirect ELISA, binding specificity of mAb 2E9; conditions: FIG. 2B
Experimental: as §4

[8] = tested on: mAb 9B10 (specific for free PSA); assay: Competitive immunoassay: inhibition of mAb binding to PSA by synthetic peptides
Experimental: as §5

[9] = tested on: mAb 5A10 (specific for free PSA); assay: as above; conditions: competitive immunoassay section C-II-A; FIG. 2A
Experimental: as §5

mAb H68 = assay: as above; conditions: competitive immunoassay section C-II-A; FIG. 2A
Experimental: as §5

mAb 2E9 [10] = assay: as above; conditions: competitive immunoassay section C-II-A; FIG. 2A
Experimental: as §5

mAb 30:5 = assay: as above; conditions: inhibition studies
Experimental: as §5

mAb 6:3 = assay: as above; conditions: inhibition studies
Experimental: as §5

goat anti-PSA antiserum = assay: Direct ELISA with alkaline phosphatase-labeled goat anti-PSA antiserum; assay type: binding; conditions: peptides coated on microtiter plates; FIG. 4
Source text: Synthetic peptides were also screened by a direct ELISA assay format which utilized a goat anti-PSA antiserum conjugated to alkaline phosphatase. In particular, peptides were coated on microtiter plates and detected by enzyme-labelled anti-PSA polyclonal antibodies. The goat anti-PSA antiserum was produced by immunization with free PSA. […] In addition to those epitopes identified by mAbs as described above, two new epitopes, ABT2 and ABT7, were identified by the anti-PSA antiserum.

Substance | binding of anti-ABT4 antiserum (relative binding affinity) [2] | binding to several known anti-PSA monoclonal antibodies [3] | immunogenicity (ability to elicit antibodies) [4] | binding of mAb H164 to coated peptide or PSA (mAb H164 [5]) | binding of anti-ABT6 antiserum (relative binding affinity) [6] | binding of mAb 2E9 to coated peptide or PSA (mAb 2E9 [7]) | further results
CLLGRHSLFHPEDTGQC [ABT4] | binds | specific binding | immunogenic | bound specifically | – | – | inhibition of PSA binding to mAb 2C1 (mAb 2C1): 80%; inhibition of PSA binding to mAb H164 (mAb H164 [1]): 90%
CMSLLKNRFLRPGDDSC [ABT6] | – | specific binding | immunogenic | – | high affinity | specific binding | binding to mAb 9B10 ([8]; competitive immunoassay section C-II-A, FIG. 2A): specific binding; binding to mAb 5A10 [9]: specific binding; binding to mAb H68 (mAb H68): selectively bound; binding to mAb 2E9 (mAb 2E9 [10]): selectively bound
CNRFLRPGDDSSC [ABT1, synthetic PSA peptide; short version of ABT6] | – | specific binding | – | – | – | – | inhibition of mAb 9B10 ([8]; inhibition studies): 40%; inhibition of mAb 30:5 (mAb 30:5): 50%; inhibition of mAb 6:3 (mAb 6:3): 23%
CWGSIEPEEFLTPKKLC [ABT2, synthetic PSA peptide] | – | specific binding | – | – | – | – | epitope identified by goat anti-PSA antiserum (goat anti-PSA antiserum): identified
PSA: Prostate specific antigen, Abbott Laboratories in house product, purified from seminal fluid | binds | – | – | bound specifically | high affinity | specific binding | –
